Laboratory results taken from ChEMBL document CHEMBL1144270, “Carbonic anhydrase inhibitors. Interaction of isozymes I, II, IV, V, and IX with carboxylates” (Bioorg Med Chem Lett, 2005).

Legend:
[1] = target: Carbonic anhydrase 1 (Homo sapiens, UniProt P00915); test: Binding affinity against human cytosolic Carbonic anhydrase I (A = activator)
[2] = target: Carbonic anhydrase 5A, mitochondrial (Homo sapiens, UniProt P35218); test: Binding affinity against human cytosolic Carbonic anhydrase V
[3] = target: Carbonic anhydrase 2 (Homo sapiens, UniProt P00918); test: Binding affinity against human cytosolic Carbonic anhydrase II
[4] = target: Carbonic anhydrase 4 (Homo sapiens, UniProt P22748); test: Binding affinity against human cytosolic Carbonic anhydrase IV
Chain of Carbonic anhydrase 4 (P22748 whole entry): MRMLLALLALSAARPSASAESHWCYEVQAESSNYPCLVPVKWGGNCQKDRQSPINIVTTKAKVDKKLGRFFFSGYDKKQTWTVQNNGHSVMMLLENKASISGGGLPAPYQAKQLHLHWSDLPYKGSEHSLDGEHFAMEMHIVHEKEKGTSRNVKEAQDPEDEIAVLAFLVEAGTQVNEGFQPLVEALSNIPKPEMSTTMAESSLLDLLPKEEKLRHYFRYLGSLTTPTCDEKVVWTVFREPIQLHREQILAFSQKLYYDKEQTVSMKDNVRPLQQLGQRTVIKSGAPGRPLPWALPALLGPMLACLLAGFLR

[5] = target: Carbonic anhydrase 9 (Homo sapiens, UniProt Q16790); test: Binding affinity against human cytosolic Carbonic anhydrase IX

Chain of Carbonic anhydrase 1 (P00915 whole entry): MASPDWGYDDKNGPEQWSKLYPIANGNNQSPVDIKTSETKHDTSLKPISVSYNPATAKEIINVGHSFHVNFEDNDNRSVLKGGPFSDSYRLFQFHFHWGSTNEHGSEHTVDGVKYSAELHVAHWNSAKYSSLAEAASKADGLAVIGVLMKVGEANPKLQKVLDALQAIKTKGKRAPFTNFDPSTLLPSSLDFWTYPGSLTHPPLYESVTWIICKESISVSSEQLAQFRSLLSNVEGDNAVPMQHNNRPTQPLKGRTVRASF
Chain of Carbonic anhydrase 5A, mitochondrial (P35218 whole entry): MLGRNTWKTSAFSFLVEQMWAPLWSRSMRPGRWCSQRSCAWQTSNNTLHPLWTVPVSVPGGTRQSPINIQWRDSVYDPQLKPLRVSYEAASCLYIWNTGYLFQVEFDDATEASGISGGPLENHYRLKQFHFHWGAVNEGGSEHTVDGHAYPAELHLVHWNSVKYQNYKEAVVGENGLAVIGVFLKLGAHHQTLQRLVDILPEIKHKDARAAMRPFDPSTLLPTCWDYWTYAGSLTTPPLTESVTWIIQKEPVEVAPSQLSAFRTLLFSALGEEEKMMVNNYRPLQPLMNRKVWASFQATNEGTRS

| Structure (SMILES) | Ki [1] | Ki [2] [µM] | Ki [3] [µM] | Ki [4] [µM] | Ki [5] [µM] |
| --- | --- | --- | --- | --- | --- |
| CC(=O)C(=O)[O-].[Na+] [PYRUVATE SODIUM] | Activator | 5500 | 2110 | 14.5 | 1120 |
| O=C([O-])C(=O)[O-].[Na+].[Na+] [SODIUM OXALATE] | Activator | 2230 | 990 | 0.099 | 3280 |
| CC(=O)[O-].[Na+] [SODIUM ACETATE] | Activator | 25900 | 130 | 550 | > 150000 |
| O=C([O-])CC(O)(CC(=O)[O-])C(=O)[O-].[Na+].[Na+].[Na+] [SODIUM CITRATE] | Activator | 1670 | 2160 | 0.099 | 4930 |
| O=C(O)c1c(F)c(F)cc(F)c1F |  | 1620 | 6 | 74.5 | 770 |
| O=C([O-])CC(=O)[O-].[Na+].[Na+] [DISODIUM MALONATE] | Activator | 6000 | 1620 | 2.8 | 1270 |
| O=C(O)C[C@H](O)C(=O)O [E350] | Activator | 2490 | 1870 | 53.7 | 7420 |
| CC(O)C(=O)[O-].[Na+] (configuration not stated) [SODIUM LACTATE] | Activator | 3370 | 3220 | 1530 | > 150000 |
| O=C[O-].[Na+] [SODIUM FORMATE] | Activator | 9970 |  |  |  |
| O=C([O-])O.[Na+] [SODIUM BICARBONATE] |  | 82000 |  |  |  |
| O=C([O-])c1ccccc1.[Na+] [SODIUM BENZOATE] | Activator | 7010 | 30 | 74.7 | > 150000 |
